# From patent US20050026223A1, “Method and compositions for increasing bone mass” (The Board of Trustees of the University of Arkansas, priority 1999, published 2005)
# Several values for one entry are separate records, joined by “and”; a condition that tells them apart may be missing. Equal entries are not always repeated.
# Assays:
# [1] = system: osteoblastic cells derived from murine calvaria; assay: Etoposide-induced apoptosis of osteoblastic cells derived from murine calvaria (trypan blue uptake); format: cell-based
# Description: Osteoblastic cells derived from murine calvaria were pretreated with the sterols for 1 hour before the addition of the pro-apoptotic agent, etoposide. Apoptosis was determined after 6 hours by trypan blue uptake (Jilka et al, J. Bone and Min. Res. 13:793:802, 1998). * indicates p<0.05 versus etoposide alone, by analysis of variance (ANOVA) (Student-Newman-Keuls method).
# Osteoblastic cells derived from murine calvaria were pretreated for 1 hour with the pure receptor antagonist ICI182,780 (10^−7 M) before the addition of the test agents (10^−8 M). Apoptosis was induced and quantified as described in FIG. 3. * indicates p<0.05 versus etoposide alone, by ANOVA (Student-Newman-Keuls method).
# In this experiment, osteoblastic cells were derived from murine calvaria and were pretreated with the sterols for 1 hour before the addition of the pro-apoptotic agent, etoposide.
# In these experiments, cells were pretreated with the indicated concentrations of the various compounds for 1 hour, in the absence or presence of the androgen receptor antagonist flutamide, before the addition of the proapoptotic agent etoposide. Apoptosis was determined after 6 hours by trypan blue uptake as described in FIG. 3.
# MLO-Y4 osteocytic cells = assay: Etoposide-induced apoptosis of MLO-Y4 osteocytic cells (trypan blue uptake); format: cell-based, murine
# Description: Cells were pretreated with the indicated concentrations of the compounds for 1 hour before the addition of the pro-apoptotic agent etoposide. Apoptosis was determined after 6 hour by trypan blue uptake as described in FIG. 3. * indicates p<0.05 versus etoposide alone, by ANOVA (Student-Newman-Keuls method).
# MLO-Y4 cells were pretreated for 1 hour with the pure receptor antagonist ICI182,780 (10^−7 M) before the addition of the test agents (10^−8 M). Apoptosis was induced and quantified as described in FIG. 3. * indicates p<0.05 versus etoposide alone, by ANOVA (Student-Newman-Keuls method).
# In this experiment, MLO-Y4 cells were pretreated with the indicated concentrations of the various compounds for 1 h before the addition of the pro-apoptotic agent, etoposide. Apoptosis was determined after 6 h by trypan blue uptake as described in FIG. 3.
# [2] = BMD by dual-energy x-ray absorptiometry in intact or ovariectomized mice, 28 days; format: in vivo; set-up: global 1 (BMD) / hindquart 1 (BMD) / spine 1 (BMD) / global 2 (BMD) / hindquart 2 (BMD) / spine 2 (BMD) / global 1 (BMD), mean / hindquart 1 (BMD), mean / spine 1 (BMD), mean / global 2 (BMD), mean / hindquart 2 (BMD), mean / spine 2 (BMD), mean: unit not given here; conditions: for Global BMD: 2000 ng/g body weight for 28 days, mean; for global 2 (BMD), mean / hindquart 2 (BMD), mean / spine 2 (BMD), mean / global 2 (BMD) / hindquart 2 (BMD) / spine 2 (BMD): 2000 ng/g for 28 days, end of experiment; for global 2 (BMD), mean / hindquart 2 (BMD), mean / spine 2 (BMD), mean / global 1 (BMD), mean / hindquart 1 (BMD), mean / spine 1 (BMD), mean: group mean; for global 2 (BMD) / hindquart 2 (BMD) / spine 2 (BMD) / global 1 (BMD) / hindquart 1 (BMD) / spine 1 (BMD): individual animals; for global 1 (BMD), mean / hindquart 1 (BMD), mean / spine 1 (BMD), mean / global 1 (BMD) / hindquart 1 (BMD) / spine 1 (BMD): 2000 ng/g group, day 0 initial measurement
# Description: In a representative experiment of this sort, six 4-5 month old female mice per group are screened twice for BMD in a four week period immediately prior to the initiation of the experiment to establish that peak adult bone mass has been attained. A subset of mice are then ovariectomized. Intact and ovariectomized mice are treated with vehicle, or 20, 200 or 2000 ng/g body weight estratriene-3-ol or another test compound.
# Stock solutions of the test agents (10,000 μg/ml) are maintained in approximately 2.0 ml of 95% ethanol. These stocks are diluted in 95% ethanol to make 1000 μg/ml and 100 μg/ml concentrations. The concentration of the stocks is checked spectrophotometrically. For each animal injection, the test agent is diluted in sesame oil and sonicated. Test agents are administered for 28 days by subcutaneous injections on alternative days. The mice are weighed weekly and serum samples are collected at appropriate times for analysis of bone biochemical markers, such as osteocalcin or collagen cross-links. Tetracycline labeling is performed by administration of the antibiotic (30 mg/kg) at 2 and 8 days prior to the end of each experiment.
# During the 28 day experiment, BMD is determined in live animals at day 0, 14 and 28. Following animal sacrifice at the end of the experiment, the vertebral bones L1-L4 are collected for fixation and embedded undecalcified in methylmethacrylate plastic for the determination of the prevalence of osteoblast and osteocyte apoptosis and other static and dynamic histomorphometric measurements. L5 vertebrae are isolated for determining anti-fracture efficacy of the compounds by assaying compression, 3 point bending and other appropriate biomechanical tests. Results confirming the expected efficacy of these compounds show decreased prevalence of osteoblast and/or osteocyte apoptosis, and/or positive BMD changes, and/or increased cancellous bone area, and/or increased rate of bone formation, and/or increased biomechanical strength.
# As an example, the results of an experiment whereby 2000 ng/g body weight of estratriene-3-ol was administered for 28 days to estrogen-replete (intact) or estrogen-deficient (ovariectomized) mice are shown in Table 2.
# Each row represents values for individual animals. The first three sets of numbers represent the initial BMD measurements (by dual-energy x-ray absorptiometry with Hologic QDR2000 plus, using customized software) at day 0 and the last three BMD measurements at the end of the experiment. Global=BMD of the entire skeleton minus the head and tail; hindquarters=the mean BMD of both hindlimbs; spine=the BMD of cervical, thoracic and lumbar spine.
# [3] = system: HeLa cells transfected with estrogen receptor β (mERβ); assay: Etoposide-induced apoptosis of HeLa cells stably transfected with mERβ; format: cell-based, human; conditions: compound 10^−8 M 1 h, etoposide 5×10^−5 M 6 hour
# Description: CMV promoter alone and CMV promoter-driven cDNA for mERα or mErβ were stably transfected into HeLa cells. […] Cells were trypsinized, pelleted and trypan blue positive cells enumerated.
# In this experiment, instead of calvaria cells, human HeLa cells which contain undetectable, if any, estrogen receptor were used. HeLa cells were stably transfected with either a CMV promoter-driven cDNA for the murine estrogen receptor-alpha (mERα) or a CMV promoter-driven cDNA for the murine estrogen receptor-beta (mERβ). […] Cells were trypsinized, pelleted and trypan blue positive cells were enumerated.
# [4] = Ovx mice, t-test ovx vs 2000 ng/g 0.0001
smiles,measurement,setting,value
C[C@@]12CCC[C@H]1[C@@H]1CCc3cc(O)ccc3[C@H]1CC2 [estratriene-3-ol],Inhibition of etoposide-induced osteoblast apoptosis,[1]; 1 hour pretreatment before etoposide,inhibition of etoposide-induced osteoblastic cell apoptosis was demonstrated
same,"Anti-apoptotic effect on osteoblastic cells after ICI182,780","[1]; compound 10^−8 M, 1 h pretreatment with ICI182,780 10^−7 M",abrogated
same,Inhibition of etoposide-induced apoptosis of osteocytic cell line,"MLO-Y4 osteocytic cells; 1 h pretreatment before etoposide, trypan blue after 6 h",dose-dependently inhibited
same,"Antiapoptotic effect on osteocytes after ICI182,780","MLO-Y4 osteocytic cells; 1 h pretreatment with ICI182,780 10^−7 M",abrogated
same,Global BMD,"[2]; Ovx mice, p < 0.00001",0.0555 ± 0.0011 g/cm2
same,"global 2 (BMD), mean","[2]; Ovx mice, t-test ovx vs 2000 ng/g 0.0000",0.0555
same,"hindquart 2 (BMD), mean",[2]; [4],0.0618
same,"spine 2 (BMD), mean",[2]; [4],0.0599
same,global 2 (BMD),[2]; Ovx mice,0.0565 and 0.0557 and 0.0548 and 0.0545 and 0.0564 and 0.0568 and 0.0550 and 0.0539
same,hindquart 2 (BMD),[2]; Ovx mice,0.0602 and 0.0632 and 0.0599 (2×) and 0.0624 and 0.0598 and 0.0647 and 0.0630
same,spine 2 (BMD),[2]; Ovx mice,0.0608 and 0.0585 and 0.0584 and 0.0598 and 0.0610 and 0.0625 and 0.0578 and 0.0605
same,"global 1 (BMD), mean",[2]; Ovx mice,0.0534
same,"hindquart 1 (BMD), mean",[2]; Ovx mice,0.0573
same,"spine 1 (BMD), mean",[2]; Ovx mice,0.0579
same,global 1 (BMD),[2]; Ovx mice,0.0505 and 0.0542 and 0.0496 and 0.0540 and 0.0526 and 0.0569 and 0.0565 and 0.0528
same,hindquart 1 (BMD),[2]; Ovx mice,0.0527 and 0.0588 and 0.0504 and 0.0596 and 0.0547 and 0.0604 and 0.0591 and 0.0582
same,spine 1 (BMD),[2]; Ovx mice,0.0547 and 0.0581 and 0.0542 and 0.0586 and 0.0580 and 0.0628 and 0.0603 and 0.0568
same,Global BMD,"[2]; intact mice, p < 0.002",0.0554 ± 0.0015 g/cm2
same,"global 2 (BMD), mean","[2]; intact mice, t-test vehicle vs 2000 ng/g 0.0036",0.0554
same,"spine 2 (BMD), mean","[2]; intact mice, t-test vehicle vs 2000 ng/g 0.0037",0.0609
same,"hindquart 2 (BMD), mean","[2]; intact mice, t-test vehicle vs 2000 ng/g 0.0077",0.0605
same,global 2 (BMD),[2]; intact mice,0.0550 and 0.0543 and 0.0541 and 0.0568 (2×) and 0.0537 and 0.0574
same,hindquart 2 (BMD),[2]; intact mice,0.0585 and 0.0603 and 0.0619 and 0.0629 and 0.0640 and 0.0554 and 0.0605
same,spine 2 (BMD),[2]; intact mice,0.0602 and 0.0604 and 0.0601 and 0.0613 and 0.0620 and 0.0588 and 0.0632
same,"global 1 (BMD), mean",[2]; intact mice,0.0527
same,"hindquart 1 (BMD), mean",[2]; intact mice,0.0562
same,"spine 1 (BMD), mean",[2]; intact mice,0.0571
same,global 1 (BMD),[2]; intact mice,0.0486 and 0.0511 and 0.0543 and 0.0537 and 0.0533 and 0.0521 and 0.0560
same,hindquart 1 (BMD),[2]; intact mice,0.0509 and 0.0565 and 0.0605 and 0.0577 and 0.0546 and 0.0544 and 0.0587
same,spine 1 (BMD),[2]; intact mice,0.0511 and 0.0560 and 0.0593 and 0.0584 and 0.0571 and 0.0555 and 0.0623
same,Effect on etoposide-induced apoptosis,[3],potently inhibited
